# Assay results taken from patent US20130109734A1 (Metabolex, Inc., priority 2010, published 2013).
# Target: T1, human GPR120 (Homo sapiens, UniProt Q5NUL3)
# T1 construct: host or cells: HEK293 cells co-expressing Gqi5
# T1 sequence (Q5NUL3 1-361): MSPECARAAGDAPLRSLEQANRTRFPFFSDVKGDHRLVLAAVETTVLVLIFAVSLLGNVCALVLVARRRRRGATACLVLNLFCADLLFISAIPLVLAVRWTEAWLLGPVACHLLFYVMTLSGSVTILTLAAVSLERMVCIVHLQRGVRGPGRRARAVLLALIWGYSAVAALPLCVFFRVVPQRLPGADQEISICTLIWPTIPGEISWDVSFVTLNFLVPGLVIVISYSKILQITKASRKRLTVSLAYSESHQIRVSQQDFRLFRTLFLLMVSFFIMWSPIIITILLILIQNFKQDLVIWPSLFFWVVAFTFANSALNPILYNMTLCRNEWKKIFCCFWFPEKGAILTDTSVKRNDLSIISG
# Assay: Intracellular Ca2+ assay in human GPR120 stable cell line (HEK293 co-expressing Gqi5), Flexstation
# Type: cell-based
# Conditions: % activity at 5 μM compared to the maximal activity of GW9508 at 6.7 μM (=100%); human GPR120 cells, Ca2+ fluorescence
# Description: Human GPR120 stable cell line was purchased from Multispan Inc (26219 Eden Landing Road, Hayward, Calif. 94545). This GPR120 cell line was generated in HEK293 cells co-expressing Gqi5. In this cell line, the Flag epitope tag (DYKDDDDK) was fused to the amino terminus of human GPR120 protein.
# The concentration of intracellular Ca^2+ was measured as described below. Human GPR120 cells were plated in 96 well plates (Poly-D-Lysine coated black/clear Plate, Greiner Bio-One) at 70,000 cells per well and cultured overnight in conditions of 37° C. and 5% CO2. A Ca^2+assay dye stock solution was prepared by adding 10 mL of assay buffer (HBSS/20 mM HEPES, pH 7.4) to FLIPR Calcium 4 Assay Bulk Kit (Molecular Devices). The 10 mL of Ca^2+ assay dye solution was prepared by further diluting 0.5 mL of Ca^2+ assay dye stock solution with 10 mL of assay buffer. The medium of the cells was removed and immediately 100 μL of the Ca^2+ assay dye solution was dispensed into each well followed by incubation at 37° C. and 5% CO2 for 50 minutes to incorporate the Ca^2+ dye into the cells. The cell plate was then placed in the Flexstation (Molecular Devices) for 20 minutes at 37° C. Compounds were dissolved in 100% DMSO and diluted to desired concentrations with assay buffer and placed in the Flexstation simultaneously with the cell plate for 20 minute incubation at 37° C. prior to reading. Fluorescence intensity was measured immediately following compound addition (25 μL/well) on the Flexstation at an excitation wavelength of 485 nm and an emission wavelength of 525 with 515 nm auto cutoff. The resulting increase in fluorescence intensities corresponds to increases in intracellular Ca^2+ levels.
# Compounds were dissolved in 100% DMSO to a concentration of 20 mM to provide stock solutions. To determine activity against human GPR120, compounds were added with human GPR120 stably expressing cells (described above), at eight desired concentrations ranging from 0.00001 to 20 μM, in 96 well plates and fluorescence intensities were measured for 90 seconds with 2-second intervals. An EC50 value (concentration of the GPR120 agonist where 50% of the agonist's maximal activity is observed) was calculated using the changes (Max−Min) of fluorescence intensity.
# To determine percent activity for a tested compound, the fluorescence intensity value obtained at a particular concentration were compared to the maximal fluorescence intensity value obtained for reference compound GW9508 (4-[[(3-phenoxyphenyl)methyl]amino]benzene propanoic acid; British Journal of Pharmacology 2006 148, 619-628) or the compound of Example 25. When GW9508 was used as the reference compound, the maximal activity of GW9508 at 6.7 μM was designated as 100% activity. When the compound of Example 25 was used as the reference compound, the maximal activity of the compound of Example 25 at 2.5 μM was designated as 100% activity. Typically, the GW9508 activity reached a maximum at a concentration of approximately 6.7 μM and typically the compound of Example 25 reached a maximum activity at approximately 2.5 μM.
row,SMILES,% Activity (GW9508 Reference Compound) [%]
1,"[2H]C1([2H])c2cc(F)cc(COc3ccc(CC(C)C(=O)O)cc3)c2OC1(C)C (stereo not shown) [Example 145, 3-(4-((3,3-dideuterio-5-fluoro-2,2-dimethyl-2,3-dihydrobenzofuran-7-yl)methoxy)phenyl)-2-methylpropanoic acid]",143.69
2,"COc1cc(CC(C)C(=O)O)ccc1OCc1cc(Cl)cc2c1OC(C)(C)C2 (stereo not shown) [Example 15, 3-(4-((5-chloro-2,2-dimethyl-2,3-dihydrobenzofuran-7-yl)methoxy)-3-methoxyphenyl)-2-methylpropanoic acid]",109.2
3,"O=C(O)C1CC1c1ccc(OCc2cc(F)cc3c2OC2(CCCC2)C3)cc1 (stereo not shown) [Example 165, 2-(4-((5-fluoro-3H-spiro[benzofuran-2,1′-cyclopentane]-7-yl)methoxy)phenyl)cyclopropanecarboxylic acid]",158.08
4,"CC(Cc1ccc(OCc2cc(Cl)cc3c2OC(C)(C)C3=O)c(C(F)(F)F)c1)C(=O)O (stereo not shown) [Example 79, 3-(4-((5-chloro-2,2-dimethyl-3-oxo-2,3-dihydrobenzofuran-7-yl)methoxy)-3-(trifluoromethyl)phenyl)-2-methylpropanoic acid]",3.85
5,"CC1(C)Cc2cc(Cl)cc(COc3cc(F)c(CCC(=O)O)c(F)c3)c2O1 [Example 54, 3-(4-((5-chloro-2,2-dimethyl-2,3-dihydrobenzofuran-7-yl)methoxy)-2,6-difluorophenyl)propanoic acid]",138.97
6,"Cc1nc2cccc(COc3c(F)cc(CC(C)C(=O)O)cc3F)c2o1 (stereo not shown) [Example 261, 3-(3,5-difluoro-4-((2-methylbenzo[d]oxazol-7-yl)methoxy)phenyl)-2-methylpropanoic acid]",108.78
7,"CC1(C)Cc2cc(F)cc(COc3ccc4c(c3)CCCC4CC(=O)O)c2O1 (stereo not shown) [Example 153, 2-(6-((5-fluoro-2,2-dimethyl-2,3-dihydrobenzofuran-7-yl)methoxy)-1,2,3,4-tetrahydronaphthalen-1-yl)acetic acid]",106.81
8,"CC(Cc1cc(F)c(OCc2ccc(C(F)(F)F)c3c2OC(C)(C)C3)c(F)c1)C(=O)O (stereo not shown) [Example 32, 3-(4-((2,2-dimethyl-4-(trifluoromethyl)-2,3-dihydrobenzofuran-7-yl)methoxy)-3,5-difluorophenyl)-2-methylpropanoic acid]",143.1
9,"CC(Cc1ccc(OCc2cc(-n3cnnn3)cc3c2OC(C)(C)C3)cc1)C(=O)O (stereo not shown) [Example 90, 3-(4-((2,2-dimethyl-5-(1H-tetrazol-1-yl)-2,3-dihydrobenzofuran-7-yl)methoxy)phenyl)-2-methylpropanoic acid]",75.86
10,"CC(Cc1ccc(OCc2ccc(F)c3c2OC(C)(C)C3)c(F)c1)C(=O)O (stereo not shown) [Example 29, 3-(3-fluoro-4-((4-fluoro-2,2-dimethyl-2,3-dihydrobenzofuran-7-yl)methoxy)phenyl)-2-methylpropanoic acid]",133.5
11,"CCc1cc(OCc2cc(F)cc3c2OC(C)(C)C3)ccc1CCC(=O)O [Example 134, 3-(2-ethyl-4-((5-fluoro-2,2-dimethyl-2,3-dihydrobenzofuran-7-yl)methoxy)phenyl)propanoic acid]",151.44
12,"[2H]C([2H])(Oc1ccc(CC(C)C(=O)O)cc1C(F)(F)F)c1cc(F)cc2c1OC(C)(C)C2 (stereo not shown) [Example 231, 3-(4-(dideuterio(5-fluoro-2,2-dimethyl-2,3-dihydrobenzofuran-7-yl)methoxy)-3-(trifluoromethyl)phenyl)-2-methylpropanoic acid]",101.01
13,"Cc1cc(CC(C)C(=O)O)ccc1OCc1cc(F)cc2c1OC(C)(C)C2 (stereo not shown) [Example 6, 3-(4-((5-fluoro-2,2-dimethyl-2,3-dihydrobenzofuran-7-yl)methoxy)-3-methylphenyl)-2-methylpropanoic acid]",147.3
14,"CC(C)Oc1ncccc1COc1ccc2c(c1)CCC2CC(=O)O (stereo not shown) [Example 259, 2-(5-((2-isopropoxypyridin-3-yl)methoxy)-2,3-dihydro-1H-inden-1-yl)acetic acid]",118.5
15,"CC(Cc1ccc(OCc2cc(Cl)cc3c2OC(C)(C)C3)c(Cl)c1)C(=O)O (stereo not shown) [Example 12, 3-(3-chloro-4-((5-chloro-2,2-dimethyl-2,3-dihydrobenzofuran-7-yl)methoxy)phenyl)-2-methylpropanoic acid]",116.1354
16,"CC(Cc1ccc(OCc2cc(Cl)cc3c2OC(C)(C)C3)c(C(F)(F)F)c1)C(=O)O (stereo not shown) [Example 9, 3-(4-((5-chloro-2,2-dimethyl-2,3-dihydrobenzofuran-7-yl)methoxy)-3-(trifluoromethyl)phenyl)-2-methylpropanoic acid]",112.8
17,"CC1(C)Cc2cc(F)cc(COc3ccc(C4CC4C(=O)O)cc3)c2O1 (single isomer, unassigned) [Example 131B, 2-(4-((5-fluoro-2,2-dimethyl-2,3-dihydrobenzofuran-7-yl)methoxy)phenyl)cyclopropanecarboxylic acid]",105.8
18,"CC(C)Oc1ccc(Cl)cc1COc1ccc2c(c1)CCC2CC(=O)O (stereo not shown) [Example 258, 2-(5-((5-chloro-2-isopropoxybenzyl)oxy)-2,3-dihydro-1H-inden-1-yl)acetic acid]",139.95
19,"CC(Cc1cc(F)c(OCc2cc(Cl)cc3c2OC(C)C3(C)C)c(F)c1)C(=O)O (stereo not shown) [Example 109, 3-(4-((5-chloro-2,3,3-trimethyl-2,3-dihydrobenzofuran-7-yl)methoxy)-3,5-difluorophenyl)-2-methylpropanoic acid]",72.36
20,"Cc1cc(OCC(=O)O)ccc1OCc1cc(Cl)cc2c1OC(C)(C)C2 [Example 103, 2-(4-((5-chloro-2,2-dimethyl-2,3-dihydrobenzofuran-7-yl)methoxy)-3-methylphenoxy)acetic acid]",98.96
21,"Cc1cc(CCC(=O)O)c(C)c(C)c1OCc1cc(F)cc2c1OC(C)(C)C2 [Example 254, 3-(4-((5-fluoro-2,2-dimethyl-2,3-dihydrobenzofuran-7-yl)methoxy)-2,3,5-trimethylphenyl) propanoic acid]",146.14
22,"CC1(C)Cc2cc(Cl)cc(COc3ccccc3CCC(=O)O)c2O1 [Example 250, 3-(2-((5-chloro-2,2-dimethyl-2,3-dihydrobenzofuran-7-yl)methoxy)phenyl)propanoic acid]",10.23
23,"CC1(C)Cc2cc(Cl)cc(COc3ccc(CCC(=O)O)c(-c4ccccc4)c3)c2O1 [Example 71, 3-(5-((5-chloro-2,2-dimethyl-2,3-dihydrobenzofuran-7-yl)methoxy)-[1,1′-biphenyl]-2-yl)propanoic acid]",133.8
24,"CC(CCc1ccc(OCc2cc(F)cc3c2OC(C)(C)C3)cc1)C(=O)O (stereo not shown) [Example 171, 4-(4-((5-fluoro-2,2-dimethyl-2,3-dihydrobenzofuran-7-yl)methoxy)phenyl)-2-methylbutanoic acid]",98.97
25,"CC(Cc1ccc(NCc2cc(F)cc3c2OC(C)(C)C3)cc1)C(=O)O (stereo not shown) [Example 67, 3-(4-(((5-fluoro-2,2-dimethyl-2,3-dihydrobenzofuran-7-yl)methyl)amino)phenyl)-2-methylpropanoic acid]",141.82
